Patent US9938261B2, “Heterocyclic compounds and methods of use thereof” (AMBIT BIOSCIENCES CORPORATION, priority 2011, dated 2018)

How the values were obtained:
[1] = target: T1, FLT3 (Homo sapiens, UniProt P36888); assay: Competition binding assay, FLT3 Kd; conditions: competition binding
T1 construct: made in house
T1 sequence (P36888 27-993): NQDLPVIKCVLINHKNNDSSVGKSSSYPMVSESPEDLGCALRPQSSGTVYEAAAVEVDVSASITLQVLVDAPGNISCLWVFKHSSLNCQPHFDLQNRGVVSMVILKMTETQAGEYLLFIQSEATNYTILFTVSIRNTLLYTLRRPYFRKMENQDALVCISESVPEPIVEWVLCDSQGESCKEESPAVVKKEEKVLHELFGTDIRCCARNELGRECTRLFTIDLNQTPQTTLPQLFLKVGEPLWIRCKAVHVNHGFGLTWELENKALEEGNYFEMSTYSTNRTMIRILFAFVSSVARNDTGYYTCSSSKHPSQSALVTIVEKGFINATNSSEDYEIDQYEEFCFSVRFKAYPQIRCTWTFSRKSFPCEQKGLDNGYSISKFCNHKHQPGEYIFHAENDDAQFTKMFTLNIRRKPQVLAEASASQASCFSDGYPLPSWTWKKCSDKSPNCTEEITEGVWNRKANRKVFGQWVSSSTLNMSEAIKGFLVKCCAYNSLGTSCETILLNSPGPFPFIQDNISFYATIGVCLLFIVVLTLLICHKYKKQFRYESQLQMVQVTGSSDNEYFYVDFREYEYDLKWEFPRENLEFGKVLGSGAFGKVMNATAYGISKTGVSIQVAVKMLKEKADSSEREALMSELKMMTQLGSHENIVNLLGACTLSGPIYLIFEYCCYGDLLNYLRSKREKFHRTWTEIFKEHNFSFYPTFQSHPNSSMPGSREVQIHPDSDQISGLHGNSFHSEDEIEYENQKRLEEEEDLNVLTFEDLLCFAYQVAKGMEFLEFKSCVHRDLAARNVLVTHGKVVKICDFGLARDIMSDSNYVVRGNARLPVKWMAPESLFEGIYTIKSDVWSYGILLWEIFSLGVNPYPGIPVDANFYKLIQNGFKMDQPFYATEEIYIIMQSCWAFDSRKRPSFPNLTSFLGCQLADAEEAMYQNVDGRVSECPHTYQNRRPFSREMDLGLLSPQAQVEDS
Procedure, shortened: (§1)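 Compound displacement of kinase from bead-immobilized ligand is measured by qPCR after 1 h equilibration at room temperature. Kinases are T7 phage fusions or DNA-tagged HEK-293 products.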

[2] = target: T2, KIT (Homo sapiens, UniProt P10721); assay: Competition binding assay, KIT Kd; conditions: competition binding
T2 construct: made in house
T2 sequence (P10721 26-976): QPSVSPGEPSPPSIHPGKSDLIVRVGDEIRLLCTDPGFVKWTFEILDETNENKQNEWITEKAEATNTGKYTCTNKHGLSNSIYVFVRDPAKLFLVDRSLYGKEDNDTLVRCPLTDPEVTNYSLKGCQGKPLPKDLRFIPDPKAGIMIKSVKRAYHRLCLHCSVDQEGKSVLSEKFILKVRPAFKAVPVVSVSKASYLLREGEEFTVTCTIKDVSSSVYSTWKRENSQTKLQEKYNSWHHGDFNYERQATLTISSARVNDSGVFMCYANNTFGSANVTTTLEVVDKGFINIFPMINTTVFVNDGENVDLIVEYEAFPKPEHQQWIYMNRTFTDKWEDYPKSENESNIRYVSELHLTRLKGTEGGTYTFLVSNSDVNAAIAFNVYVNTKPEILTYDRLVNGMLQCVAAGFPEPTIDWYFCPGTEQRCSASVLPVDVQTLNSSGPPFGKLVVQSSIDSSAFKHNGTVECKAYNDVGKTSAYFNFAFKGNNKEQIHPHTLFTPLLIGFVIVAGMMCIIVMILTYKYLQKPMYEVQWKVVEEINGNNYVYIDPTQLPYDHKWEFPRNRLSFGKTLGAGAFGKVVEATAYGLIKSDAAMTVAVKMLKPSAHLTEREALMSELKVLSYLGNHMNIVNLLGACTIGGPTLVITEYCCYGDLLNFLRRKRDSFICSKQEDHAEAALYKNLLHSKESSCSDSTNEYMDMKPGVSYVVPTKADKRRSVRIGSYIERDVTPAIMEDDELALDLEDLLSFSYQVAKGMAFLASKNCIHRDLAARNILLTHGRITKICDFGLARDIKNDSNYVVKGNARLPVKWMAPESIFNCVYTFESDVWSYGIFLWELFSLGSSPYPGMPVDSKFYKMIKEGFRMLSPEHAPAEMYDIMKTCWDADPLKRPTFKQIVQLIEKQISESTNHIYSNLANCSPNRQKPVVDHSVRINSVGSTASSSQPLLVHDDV
Procedure, shortened: as §1

[3] = target: kinase panel containing either 386 or 392 distinct kinases; assay: Kinase selectivity score S10 from competition binding panel; conditions: 10 μM, panel of 386 or 392 distinct kinases
Procedure, shortened: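 S10 is the number of kinases with percent-of-control under 10, divided by all distinct wild-type kinases tested, from a single 10 μM concentration. Binding measured by qPCR of kinase recovered from ligand-coated beads after 1 h equilibrium at room temperature; kinases were phage fusions or DNA-tagged HEK-293 products.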

[4] = target: CSF1R (Homo sapiens, UniProt P07333); assay: Competition binding assay, CSF1R Kd; parameters: made in house; conditions: competition binding
CSF1R, sequence (P07333 20-972): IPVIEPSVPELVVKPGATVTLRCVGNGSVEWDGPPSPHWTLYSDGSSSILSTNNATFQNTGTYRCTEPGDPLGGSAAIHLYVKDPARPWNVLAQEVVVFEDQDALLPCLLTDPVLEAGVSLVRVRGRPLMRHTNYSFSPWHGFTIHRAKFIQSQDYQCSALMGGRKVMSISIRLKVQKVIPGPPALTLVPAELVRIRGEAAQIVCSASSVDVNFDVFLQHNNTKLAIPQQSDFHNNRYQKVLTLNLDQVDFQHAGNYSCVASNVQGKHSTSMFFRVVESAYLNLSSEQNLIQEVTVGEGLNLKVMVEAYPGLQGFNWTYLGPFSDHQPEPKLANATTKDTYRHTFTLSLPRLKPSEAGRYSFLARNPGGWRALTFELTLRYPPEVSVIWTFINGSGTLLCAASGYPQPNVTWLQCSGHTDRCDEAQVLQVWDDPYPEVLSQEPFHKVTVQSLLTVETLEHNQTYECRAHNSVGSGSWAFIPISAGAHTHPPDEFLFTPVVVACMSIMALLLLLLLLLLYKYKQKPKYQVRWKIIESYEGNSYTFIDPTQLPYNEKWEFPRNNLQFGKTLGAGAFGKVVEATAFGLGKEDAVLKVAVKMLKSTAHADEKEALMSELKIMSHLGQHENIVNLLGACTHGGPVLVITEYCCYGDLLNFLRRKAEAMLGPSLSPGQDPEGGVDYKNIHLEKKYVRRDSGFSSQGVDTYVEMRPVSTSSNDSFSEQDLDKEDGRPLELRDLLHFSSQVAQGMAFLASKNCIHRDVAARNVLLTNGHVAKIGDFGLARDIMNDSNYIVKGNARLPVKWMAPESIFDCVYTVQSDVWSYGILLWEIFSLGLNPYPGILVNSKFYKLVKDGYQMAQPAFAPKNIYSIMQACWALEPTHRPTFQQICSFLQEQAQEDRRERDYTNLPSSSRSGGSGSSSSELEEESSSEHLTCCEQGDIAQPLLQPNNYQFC
Procedure, shortened: as §1

[5] = target: T3, PDGFRβ (Homo sapiens, UniProt P09619); assay: Competition binding assay, PDGFRβ Kd; conditions: competition binding
T3 construct: made in house
T3 sequence (P09619 33-1106): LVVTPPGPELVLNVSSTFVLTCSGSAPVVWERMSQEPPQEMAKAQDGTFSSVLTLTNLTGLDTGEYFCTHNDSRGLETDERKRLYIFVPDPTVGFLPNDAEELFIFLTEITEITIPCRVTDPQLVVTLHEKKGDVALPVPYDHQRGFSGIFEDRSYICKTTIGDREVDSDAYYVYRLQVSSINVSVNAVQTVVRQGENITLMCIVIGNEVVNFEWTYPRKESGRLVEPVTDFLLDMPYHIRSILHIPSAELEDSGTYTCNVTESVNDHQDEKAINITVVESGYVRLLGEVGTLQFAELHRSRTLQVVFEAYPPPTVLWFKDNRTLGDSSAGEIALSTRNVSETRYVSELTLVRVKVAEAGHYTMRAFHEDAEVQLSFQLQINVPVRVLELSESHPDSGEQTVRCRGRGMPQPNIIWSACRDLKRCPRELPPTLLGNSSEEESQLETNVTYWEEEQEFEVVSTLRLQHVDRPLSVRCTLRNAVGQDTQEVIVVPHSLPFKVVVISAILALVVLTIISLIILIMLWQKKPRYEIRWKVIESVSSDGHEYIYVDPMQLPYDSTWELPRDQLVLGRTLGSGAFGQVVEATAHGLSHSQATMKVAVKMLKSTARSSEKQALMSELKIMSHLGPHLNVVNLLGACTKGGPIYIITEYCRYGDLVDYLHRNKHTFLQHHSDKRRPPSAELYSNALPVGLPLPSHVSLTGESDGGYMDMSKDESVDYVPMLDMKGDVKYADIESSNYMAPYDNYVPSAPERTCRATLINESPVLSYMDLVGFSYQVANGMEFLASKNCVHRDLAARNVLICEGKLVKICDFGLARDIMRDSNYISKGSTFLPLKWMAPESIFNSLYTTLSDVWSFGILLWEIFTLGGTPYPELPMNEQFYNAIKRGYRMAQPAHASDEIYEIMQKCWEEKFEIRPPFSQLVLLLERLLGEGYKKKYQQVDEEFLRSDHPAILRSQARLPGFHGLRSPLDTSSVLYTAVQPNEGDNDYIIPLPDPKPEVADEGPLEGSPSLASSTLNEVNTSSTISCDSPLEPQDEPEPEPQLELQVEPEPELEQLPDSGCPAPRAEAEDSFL
Procedure, shortened: as §1

[6] = test system: M-NFS-60 cells; assay: M-NFS-60 cell proliferation assay (Alamar Blue); assay type: cell-based, mouse; conditions: Mus musculus; M-NFS-60 cell proliferation; read-out: CSF1R M-NFS-60 CTB:IC50
Procedure, shortened: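 Alamar Blue reduction (3 h; 560/590 nm) measured viability after 72 h, 37 °C treatment with nine half-log compound concentrations at 0.5% DMSO. Cells: M-CSF-dependent (20 ng/mL) murine M-NFS-60 in RPMI plus 10% FBS. IC50s, averaged from duplicates, reflect half-maximal inhibition of proliferation relative to control.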

Structure (SMILES) | Kd [1] | Kd [2] | Kinase specificity S(10) [3] | Kd [4] | Kd [5] | IC50 [6]
O[C@@H]1CCCC[C@H]1Nc1nc2ccc(Cc3cnc4cccc(F)n34)cc2s1 [Example 186, (1R,2R)-2-((6-((5-fluoroimidazo[1,2-a]pyridin-3-yl)methyl)benzo[d]thiazol-2-yl)amino)cyclohexanol] | ≤ 200 nM | 100 to 500 nM | B (0.01<B≤0.02) | 5 to 20 nM | 50 to 500 nM | 400 to 1500 nM
O[C@@H]1CCCC[C@H]1Nc1nc2ccc(Cc3cnc4ccc(Br)nn34)cc2s1 [Example 177, (1R,2R)-2-((6-((6-bromoimidazo[1,2-b]pyridazin-3-yl)methyl)benzo[d]thiazol-2-yl)amino)cyclohexanol] | ≤ 200 nM | ≤ 100 nM | C (C>0.02) | ≤ 5 nM | ≤ 50 nM | ≤ 50 nM
O[C@@H]1CCCC[C@H]1Nc1nc2ccc(Cn3cnc4cc(OC5COC5)ccc43)cc2s1 [Example 182, (1R,2R)-2-((6-((5-(oxetan-3-yloxy)-1H-benzo[d]imidazol-1-yl)methyl)benzo[d]thiazol-2-yl)amino)cyclohexanol] | 200 to 1000 nM | 100 to 500 nM | A (A≤0.01) | ≤ 5 nM | 50 to 500 nM | 50 to 400 nM
